Results taken from BigSolDB 2.1.

CC(=O)[C@@]1(O)CC[C@H]2[C@@H]3CCC4=CC(=O)CC[C@]4(C)[C@H]3C(O)C[C@@]21C (stereo in doubt)
solubility (mole fraction)
Conditions | 278.15 K | 283.15 K | 288.15 K | 293.15 K | 298.15 K | 303.15 K | 308.15 K | 313.15 K
in DMF | 0.0659 | 0.0722 | 0.0753 | 0.0825 | 0.0943 | 0.1 | 0.11 | 0.119
in acetone | 0.00679 | 0.00761 | 0.00804 | 0.00859 | 0.0095 | 0.0106 | 0.0115 | 0.0123
in chloroform | 0.0129 | 0.0134 | 0.0141 | 0.0146 | 0.0157 | 0.016 | 0.0172 | 0.0189
in methanol | 0.0139 | 0.0147 | 0.0159 | 0.0172 | 0.0181 | 0.0206 | 0.0232 | 0.0249
in n-propanol | 0.00838 | 0.00978 | 0.0112 | 0.0129 | 0.0134 | 0.0143 | 0.0157 | 0.0169
in water | 1.39e-05 | 1.73e-05 | 2.08e-05 | 2.43e-05 | 2.77e-05 | 3.47e-05 | 3.64e-05 | 3.98e-05
